Test [1] deals with neuronal cells infected with LV-SYN. Description: neurite outgrowth (MAP2 antibody) in neuronal cells expressing high levels of SYN. The class given is cell-based. Particulars: 0.1 μM; FIG. 6.
Description: For the neuronal cell based assays, the neuroblastoma line B103 will be used. […] To infect the neural cells with LV vectors, multiples of infections (MOI) of 0.1, 1 or 5 (based on TU/ml on 293T cells) will be used. After 4-5 days in vitro, the % of transgene-expressing cells will be analyzed. The B103 cells will be maintained at 37° C., 5% CO2 in Dulbecco's modified eagle medium (DMEM, high glucose) supplemented with 10% fetal bovine serum (Irvine Scientific, Irvine, Calif.) and 1% v/v penicillin/streptomycin. For analysis of SYN aggregation cell homogenates will be analyzed by immunoblot with antibodies against SYN and in coverslips by immunocytochemistry. For evaluation of neurite outgrowth coverslips will be immunostained with an antibody against MAP2 and analyzed with a digital Olympus microscope and the Image Quant System.
Test [2] shares this test system. Description: FLIPR assay of Ca++ levels (Flou-4) in neuronal cells infected with LV-SYN. It is filed as cell-based.

`CCCCNC(=O)C(Cc1c[nH]c2ccccc12)NC(=O)c1cnc(N2CCNCC2)s1` (stereo not drawn) [NPT200-5]: the “effect on neurite length extension and cellular morphology” value in test [1] is “ameliorated the deleterious effects on neurite length extension and improved cellular morphology”. Besides, the “improvement of Ca++ levels” value in test [2] (0.1 μM concentration) was 50%. Further, the “levels of Ca++ after treatment” value in test [2] (24 hrs treatment, LV-SYN cells showed 25-30% higher Ca++ than empty vector control, FIG. 7) is “back to baseline”.

Values taken from US8846682B2, “Compound suitable for the treatment of synucleopathies” (Neuropore Therapies, Inc., priority 2009, dated 2014).
